The source of these data is ChEMBL document CHEMBL4340503, “Antiviral activities of Janus-type nucleosides and their related oxime-intermediates” (Bioorg Med Chem, 2019).

Each structure is given as a SMILES string. In brackets after ≈: the same amount, converted by molar mass.

One data set has as its system Influenza A virus H3N2. Kind of data set: Antiviral activity against Influenza A virus H3N2 infected in African green monkey Vero cells assessed as inhibition of virus-induced cytopathogenic effect by microscopic analysis. The class given is functional, organism-based. On the technique in general: Cytopathic effects are the visible damage that an infection or toxin causes in cultured cells.

The next data set relates to Human alphaherpesvirus 1. Kind of data set: Antiviral activity against Herpes simplex virus 1 infected in African green monkey Vero cells assessed as inhibition of virus-induced cytopathogenic effect by microscopic analysis. It is filed as functional, organism-based. To be noted: Human alphaherpesvirus 1, Vero.
Data set [1] can be described thus: Cytotoxicity against African green monkey Vero cells infected with Herpes simplex virus 1 after 72 hrs by MTT assay. The class given is cell-based. The conditions noted are these: chlorocebus sabaeus, read-out: TC50. On the technique in general: Formazan colour is commonly taken as a measure of viable cells.
Data set [2] in a line: Selectivity index, ratio of TC50 against African green monkey Vero cells infected with Hepatitis C virus after 72 hrs by MTT assay to IC50 against Hepatitis C virus infected in African green monkey Vero cells assessed as inhibition of virus-induced cytopathogenic effect by microscopic analysis. It is filed as toxicity. The conditions noted are these: read-out: Selectivity Index.

A short description of data set [3]: Cytotoxicity against African green monkey Vero cells infected with Human papillomavirus after 72 hrs by MTT assay. The class given is cell-based. To be noted: chlorocebus sabaeus, read-out: TC50.
Data set [4] can be described thus: Cytotoxicity against African green monkey Vero cells infected with Hepatitis C virus after 72 hrs by MTT assay. It is filed as cell-based. To be noted: chlorocebus sabaeus, read-out: TC50.
Data set [5] is described as follows: Cytotoxicity against African green monkey Vero cells infected with Herpes simplex virus 2 after 72 hrs by MTT assay. It is filed as cell-based. The conditions noted are these: chlorocebus sabaeus, read-out: TC50.
The test system of a further data set is Coxsackievirus B3. The data set can be described thus: Antiviral activity against Coxsackievirus B3 infected in African green monkey Vero cells assessed as inhibition of virus-induced cytopathogenic effect by microscopic analysis. The class given is functional, organism-based. The conditions noted are these: Enterovirus B.
A short description of data set [6]: Selectivity index, ratio of TC50 against African green monkey Vero cells infected with Herpes simplex virus 1 after 72 hrs by MTT assay to IC50 against Herpes simplex virus 1 infected in African green monkey Vero cells assessed as inhibition of virus-induced cytopathogenic effect by microscopic analysis. The class given is toxicity. To be noted: read-out: Selectivity Index.

The nature of data set [7]: Cytotoxicity against African green monkey Vero cells infected with Influenza A virus H3N2 after 72 hrs by MTT assay. The class given is cell-based. To be noted: chlorocebus sabaeus, read-out: TC50.
Data set [8] can be described thus: Cytotoxicity against African green monkey Vero cells infected with Coxsackievirus B3 after 72 hrs by MTT assay. The class given is cell-based. To be noted: chlorocebus sabaeus, read-out: TC50.
Data set [9] can be described thus: Cytotoxicity against African green monkey Vero cells infected with Hepatitis B virus after 72 hrs by MTT assay. The class given is cell-based. The conditions noted are these: chlorocebus sabaeus, read-out: TC50.
A short description of data set [10]: Selectivity index, ratio of TC50 against African green monkey Vero cells infected with Coxsackievirus B3 after 72 hrs by MTT assay to IC50 against Coxsackievirus B3 infected in African green monkey Vero cells assessed as inhibition of virus-induced cytopathogenic effect by microscopic analysis. The class given is toxicity. To be noted: read-out: Selectivity Index.

Data set [11] is described as follows: Selectivity index, ratio of TC50 against African green monkey Vero cells infected with Influenza A virus H3N2 after 72 hrs by MTT assay to IC50 against Influenza A virus H3N2 infected in African green monkey Vero cells assessed as inhibition of virus-induced cytopathogenic effect by microscopic analysis. The class given is toxicity. To be noted: read-out: Selectivity Index.

Data set [12] in a line: Selectivity index, ratio of TC50 against African green monkey Vero cells infected with Human papillomavirus after 72 hrs by MTT assay to IC50 against Human papillomavirus infected in African green monkey Vero cells assessed as inhibition of virus-induced cytopathogenic effect by microscopic analysis. The class given is toxicity. To be noted: read-out: Selectivity Index.

The nature of data set [13]: Selectivity index, ratio of TC50 against African green monkey Vero cells infected with Hepatitis B virus after 72 hrs by MTT assay to IC50 against Hepatitis B virus infected in African green monkey Vero cells assessed as inhibition of virus-induced cytopathogenic effect by microscopic analysis. The class given is toxicity. The conditions noted are these: read-out: Selectivity Index.

Another data set concerns Human papillomavirus. Kind of data set: Antiviral activity against Human papillomavirus infected in African green monkey Vero cells assessed as inhibition of virus-induced cytopathogenic effect by microscopic analysis. The class given is functional, organism-based.
Another data set deals with Hepatitis C virus. The data set can be described thus: Antiviral activity against Hepatitis C virus infected in African green monkey Vero cells assessed as inhibition of virus-induced cytopathogenic effect by microscopic analysis. The class given is functional, organism-based, Hepacivirus hominis.
Another data set has as its system Human alphaherpesvirus 2. Kind of data set: Antiviral activity against Herpes simplex virus 2 infected in African green monkey Vero cells assessed as inhibition of virus-induced cytopathogenic effect by microscopic analysis. It is filed as functional, organism-based. To be noted: Human alphaherpesvirus 2, Vero.
Data set [14] can be described thus: Selectivity index, ratio of TC50 against African green monkey Vero cells infected with Herpes simplex virus 2 after 72 hrs by MTT assay to IC50 against Herpes simplex virus 2 infected in African green monkey Vero cells assessed as inhibition of virus-induced cytopathogenic effect by microscopic analysis. The class given is toxicity. The conditions noted are these: read-out: Selectivity Index.

As usually defined, the IC50 is the point on the concentration scale where inhibition reaches its midpoint. As to `Nc1ncnc2c1c(=O)[nH]c(=O)n2[C@H]1O[C@@H](CO)[C@H](O)[C@@H]1O`, the IC50 in the data set on Influenza A virus H3N2 is above 33.3 µg/mL; in the data set with Human alphaherpesvirus 1, above 30.2 µg/mL. Moreover, the CC50 at 72 h in [1] is 40.5 µg/mL (≈ 130 µM).

`COc1ccccc1CCCNc1ncnc(Cl)c1/C=N/O`: the IC50 with Human alphaherpesvirus 1 was above 0.19 µg/mL. Moreover, the CC50 at 72 h in data set [1] came out at 1.29 µg/mL (≈ 4.02 µM).

On to `CC(C)(C)c1ccc(CNc2ncnc(Cl)c2/C=N/O)cc1`, for which the selectivity ratio at 72 h in [2] stood at 17.8; in data set [6], 5.2; in [10], 4.92; in data set [11], 1.78; in data set [12], 1.75; in data set [13], 17.9. In addition, the selectivity ratio at 72 h in data set [14] came out at 13.2. Moreover, the CC50 at 72 h in [3] was found to be 9.8 µg/mL (≈ 30.7 µM); in data set [4], 19.3 µg/mL (≈ 60.5 µM); in [5], 0.53 µg/mL (≈ 1.66 µM); in [7], 0.48 µg/mL (≈ 1.51 µM); in [8], 0.64 µg/mL (≈ 2.01 µM); in data set [9], 0.0397 µg/mL (≈ 0.124 µM). In addition, the CC50 at 72 h in [1] is 0.26 µg/mL (≈ 0.816 µM). In addition, the IC50 in the data set with Coxsackievirus B3 came out at 0.12 µg/mL (≈ 0.376 µM); in the data set on Influenza A virus H3N2, 0.27 µg/mL (≈ 0.847 µM); in the data set on Human papillomavirus, 5.6 µg/mL (≈ 17.6 µM); in the data set on Human alphaherpesvirus 1, 0.05 µg/mL (≈ 0.157 µM); with Hepatitis C virus, 1.15 µg/mL (≈ 3.61 µM); in the data set on Human alphaherpesvirus 2, 0.04 µg/mL (≈ 0.125 µM).

Take `Nc1nc2c(c(N)nc(=O)n2[C@H]2C[C@H](O)[C@@H](CO)O2)c(=O)[nH]1`: the IC50 in the data set with Influenza A virus H3N2 is above 250 µg/mL; with Human alphaherpesvirus 1, above 167 µg/mL. Moreover, in [1], the CC50 at 72 h is 347 µg/mL (≈ 1120 µM).

Turning to `Nc1ncn([C@H]2C[C@H](O)[C@@H](CO)O2)c2nc(=O)[nH]c(=O)c1-2`, the figures for the IC50 in the data set with Influenza A virus H3N2 and in the data set on Human alphaherpesvirus 1 were above 111 µg/mL and above 333 µg/mL, respectively. Also, the CC50 at 72 h in data set [1] was 577 µg/mL (≈ 1960 µM).

Regarding `COc1ccccc1CNc1ncnc(Cl)c1/C=N/O`, the selectivity ratio at 72 h in [2] stood at 27.2; in data set [6], 21.5; in [10], 17.2; in [11], 4.41; in data set [12] it was 1.71; in [13], 25.3. Further, the selectivity ratio at 72 h in data set [14] worked out at 3.83. The CC50 at 72 h in data set [3] is 13.5 µg/mL (≈ 46.1 µM); in [4], 32.4 µg/mL (≈ 111 µM); in data set [5], 1.11 µg/mL (≈ 3.79 µM); in [7] it was 1.19 µg/mL (≈ 4.07 µM); in data set [8], 0.86 µg/mL (≈ 2.94 µM); in data set [9] it was 0.063 µg/mL (≈ 0.215 µM). In [1], the CC50 at 72 h was 0.86 µg/mL (≈ 2.94 µM). The IC50 in the data set on Coxsackievirus B3 was determined as 0.05 µg/mL (≈ 0.171 µM); with Influenza A virus H3N2, 0.27 µg/mL (≈ 0.922 µM); with Human papillomavirus, 7.9 µg/mL (≈ 27 µM); in the data set on Human alphaherpesvirus 1 it was 0.04 µg/mL (≈ 0.137 µM); in the data set on Hepatitis C virus it was 1.19 µg/mL (≈ 4.07 µM); with Human alphaherpesvirus 2, 0.29 µg/mL (≈ 0.991 µM).

For `CO/N=C\c1c(Cl)ncnc1NCc1ccccc1OC`, the selectivity ratio at 72 h in [6] is 5.58. Besides, the IC50 with Human alphaherpesvirus 1 stood at 14.4 µg/mL (≈ 46.8 µM). Further, the CC50 at 72 h in data set [1] worked out at 80.1 µg/mL (≈ 261 µM).

Turning to `CO/N=C/c1c(Cl)ncnc1NCc1ccccc1OC`, the selectivity ratio at 72 h in [6] was 9. The IC50 in the data set with Human alphaherpesvirus 1 was 4.28 µg/mL (≈ 14 µM). In data set [1], the CC50 at 72 h is 38.5 µg/mL (≈ 126 µM).

As to `Nc1ncnc2c1c(=O)[nH]c(=O)n2[C@@H]1O[C@H](CO)[C@@H](O)[C@@H]1O`, the IC50 with Influenza A virus H3N2 is above 333 µg/mL; with Human alphaherpesvirus 1, above 83.3 µg/mL. The CC50 at 72 h in data set [1] was above 250 µg/mL.

As to `C[C@H]1O[C@@H](n2cnc(N)c3c(=O)[nH]c(=O)nc2-3)[C@H](O)[C@@H]1O`, the selectivity ratio at 72 h in data set [6] and in data set [11] was 3 each time. In addition, the IC50 in the data set on Influenza A virus H3N2 and in the data set on Human alphaherpesvirus 1 was 167 µg/mL (≈ 564 µM) in each case. Further, the CC50 at 72 h in [1] is 500 µg/mL (≈ 1690 µM).

As for `O/N=C/c1c(Cl)ncnc1NCc1ccc(F)cc1`, the IC50 with Human alphaherpesvirus 1 was above 2.47 µg/mL. The CC50 at 72 h in [1] came out at 12.8 µg/mL (≈ 45.7 µM).

For the compound `Nc1ncn([C@@H]2O[C@H](CO)[C@@H](O)[C@@H]2O)c2nc(=O)[nH]c(=O)c1-2`, the IC50 was above 0.46 µg/mL in the data set on Influenza A virus H3N2 and above 0.59 µg/mL with Human alphaherpesvirus 1. Also, in [1], the CC50 at 72 h came to 1.78 µg/mL (≈ 5.72 µM).

As for `COc1ccc(Cn2c(=O)nc(N)c3c(=O)[nH]c(N)nc32)cc1`, the IC50 in the data set on Influenza A virus H3N2 was above 55.6 µg/mL; in the data set with Human alphaherpesvirus 1, above 6.17 µg/mL. Also, in data set [1], the CC50 at 72 h came to 18.5 µg/mL (≈ 58.9 µM).

On to `COc1cccc(CNc2ncnc(Cl)c2/C=N/O)c1`, for which, in data set [6], the selectivity ratio at 72 h turned out to be 4.81. In addition, the IC50 in the data set with Human alphaherpesvirus 1 amounted to 0.48 µg/mL (≈ 1.64 µM). The CC50 at 72 h in data set [1] turned out to be 2.31 µg/mL (≈ 7.89 µM).

In the case of `Nc1ncn([C@@H]2O[C@H](CO)C[C@H]2O)c2nc(=O)[nH]c(=O)c1-2`, in data set [6], the selectivity ratio at 72 h is 4.6. For the same compound, the IC50 in the data set with Influenza A virus H3N2 is above 83.3 µg/mL; in the data set with Human alphaherpesvirus 1 it was 75.9 µg/mL (≈ 257 µM). The CC50 at 72 h in [1] was found to be 347 µg/mL (≈ 1170 µM).

In the case of `COc1ccccc1CNc1ncnc(Cl)c1/C=N\O`, the selectivity ratio at 72 h in [6] was determined as 2.23. For the same compound, the IC50 in the data set on Human alphaherpesvirus 1 is 4.79 µg/mL (≈ 16.4 µM). In [1], the CC50 at 72 h worked out at 10.7 µg/mL (≈ 36.5 µM).

For `NC(=O)c1ncn([C@@H]2O[C@H](CO)[C@@H](O)[C@H]2O)n1` [RIBAVIRIN], in data set [6], the selectivity ratio at 72 h was above 5.2. Further, the IC50 in the data set on Human alphaherpesvirus 1 turned out to be 38.5 µg/mL (≈ 158 µM). The CC50 at 72 h in data set [1] was above 200 µg/mL.
